Calls of active or inactive are those of the source.
Tests used:
[1] = target: Intestinal-type alkaline phosphatase (Mus musculus, UniProt P24822); test: PubChem AID 488874; format: functional
[2] = target: T1, Intestinal-type alkaline phosphatase (Homo sapiens, UniProt P09923); test: Dose Response confirmation of uHTS hits from a small molecule inhibitors of human intestinal alkaline phosphatase via a luminescent assay. [Related pubchem assays (depositor defined):AID2544, AID2574]; format: functional
[3] = target: Dual specificity tyrosine-phosphorylation-regulated kinase 1A (Rattus norvegicus, UniProt Q63470); format: biochemical, Homo sapiens
[4] = target: T2, Microphthalmia-associated transcription factor (Homo sapiens, UniProt O75030); test: reducers of TRPM1 reporter luminescence, concentration series – cell-based, SK-MEL-5, cherry-picked, set 3, MITF inhibitor project, dose response (AID 493073); format: functional;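 also: SK-MEL-5 melanoma cells with luciferase driven by the MITF target TRPM1 promoter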
T2 sequence (O75030 whole entry): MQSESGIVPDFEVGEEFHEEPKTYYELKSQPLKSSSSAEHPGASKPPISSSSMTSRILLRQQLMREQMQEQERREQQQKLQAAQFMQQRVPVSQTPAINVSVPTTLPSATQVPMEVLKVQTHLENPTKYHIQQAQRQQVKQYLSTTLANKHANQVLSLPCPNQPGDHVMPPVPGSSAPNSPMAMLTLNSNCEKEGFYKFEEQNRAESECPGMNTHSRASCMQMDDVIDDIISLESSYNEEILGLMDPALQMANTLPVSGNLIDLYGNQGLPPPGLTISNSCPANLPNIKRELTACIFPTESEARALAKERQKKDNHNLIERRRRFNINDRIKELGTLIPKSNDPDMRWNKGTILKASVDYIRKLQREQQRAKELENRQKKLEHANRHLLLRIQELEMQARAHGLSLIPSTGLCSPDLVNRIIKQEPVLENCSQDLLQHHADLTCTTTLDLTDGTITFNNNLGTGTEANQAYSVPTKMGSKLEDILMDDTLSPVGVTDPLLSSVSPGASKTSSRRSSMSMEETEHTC

[5] = target: T3, Endoribonuclease toxin MazF (Escherichia coli K-12, UniProt P0AE70); test: activation of MazEF endoribonuclease cleavage – biochemical, fluorescence, single-stranded RNA substrate, uHTS hits, dose response (AID 588481); format: functional
T3 sequence (P0AE70 whole entry): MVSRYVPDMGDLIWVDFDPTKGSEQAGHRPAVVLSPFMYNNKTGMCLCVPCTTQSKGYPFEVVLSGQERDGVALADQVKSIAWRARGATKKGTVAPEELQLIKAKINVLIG

[6] = target: T1, Intestinal-type alkaline phosphatase; test: inhibition of human intestinal alkaline phosphatase – biochemical, luminescent, uHTS hits, set 2, dose response (AID 488793); format: functional
[7] = target: T4, Alkaline phosphatase, tissue-nonspecific isozyme (Homo sapiens, UniProt P05186); test: inhibition of tissue-nonspecific alkaline phosphatase – biochemical, dose response (AID 488882); format: functional
T4 sequence (P05186 whole entry): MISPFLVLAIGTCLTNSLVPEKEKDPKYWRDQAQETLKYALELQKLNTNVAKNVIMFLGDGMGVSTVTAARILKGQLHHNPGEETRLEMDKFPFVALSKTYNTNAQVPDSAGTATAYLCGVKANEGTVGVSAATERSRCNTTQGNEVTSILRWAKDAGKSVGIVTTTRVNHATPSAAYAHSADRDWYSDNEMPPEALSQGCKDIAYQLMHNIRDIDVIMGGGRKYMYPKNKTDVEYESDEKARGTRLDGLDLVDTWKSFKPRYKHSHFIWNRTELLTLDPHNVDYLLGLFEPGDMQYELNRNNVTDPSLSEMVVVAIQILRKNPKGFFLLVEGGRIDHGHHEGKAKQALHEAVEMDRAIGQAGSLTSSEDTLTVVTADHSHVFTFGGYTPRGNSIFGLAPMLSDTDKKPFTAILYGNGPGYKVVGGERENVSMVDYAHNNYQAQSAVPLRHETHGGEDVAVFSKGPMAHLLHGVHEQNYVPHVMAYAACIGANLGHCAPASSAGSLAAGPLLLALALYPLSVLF

[8] = target: T3, Endoribonuclease toxin MazF; test: substrate-only fluorescence increase artefacts – biochemical, single-stranded RNase substrate, counter-screen for MazEF activator project, dose response (AID 588502); format: functional
[9] = target: T5, Rac GTPase-activating protein 1 (Homo sapiens, UniProt Q9H0H5); test: blockers of MgcRacGAP-driven Rac1 GTP hydrolysis – biochemical, ADP Hunter fluorescence, primary and confirmatory, confirmation (AID 624330); format: functional
T5 sequence (Q9H0H5 whole entry): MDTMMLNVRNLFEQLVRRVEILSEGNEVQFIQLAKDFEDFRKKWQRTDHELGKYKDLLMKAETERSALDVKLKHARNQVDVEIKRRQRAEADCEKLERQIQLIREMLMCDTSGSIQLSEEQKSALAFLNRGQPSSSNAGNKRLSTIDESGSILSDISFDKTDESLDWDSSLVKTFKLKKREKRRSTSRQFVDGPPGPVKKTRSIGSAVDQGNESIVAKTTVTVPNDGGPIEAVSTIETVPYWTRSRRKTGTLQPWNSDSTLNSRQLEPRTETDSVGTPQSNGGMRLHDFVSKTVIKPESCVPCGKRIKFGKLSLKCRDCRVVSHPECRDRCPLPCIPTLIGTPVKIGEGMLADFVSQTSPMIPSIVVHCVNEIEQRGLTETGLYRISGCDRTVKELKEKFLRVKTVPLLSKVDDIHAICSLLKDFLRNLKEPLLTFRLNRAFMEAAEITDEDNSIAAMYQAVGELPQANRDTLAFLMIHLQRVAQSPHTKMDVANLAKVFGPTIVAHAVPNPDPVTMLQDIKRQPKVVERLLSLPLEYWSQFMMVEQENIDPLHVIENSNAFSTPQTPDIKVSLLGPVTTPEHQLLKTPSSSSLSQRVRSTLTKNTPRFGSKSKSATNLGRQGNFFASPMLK

[10] = target: T6, Kappa-type opioid receptor (Homo sapiens, UniProt P41145); test: kappa opioid receptor blockers, cell-based, luminescence, beta-arrestin, SAR follow-up (AID 2285); format: functional
[11] = target: T6, Kappa-type opioid receptor; test: kappa opioid receptor activation potency – imaging, image-based, SAR follow-up (AID 2359); format: functional
[12] = target: T7, Delta-type opioid receptor (Homo sapiens, UniProt P41143); test: DOR agonists, SAR follow-up, image-based (AID 2370); format: functional
[13] = target: T6, Kappa-type opioid receptor; test: kappa opioid receptor blockers, image-based, SAR follow-up (AID 2348); format: functional
Mu-type opioid receptor [14] = target: T8, Mu-type opioid receptor (Homo sapiens, UniProt P35372); test: mu opioid receptor activators, image-based, SAR follow-up (AID 2352); format: functional
[15] = target: T7, Delta-type opioid receptor; test: delta opioid receptor blockers – image-based, SAR follow-up (AID 2357); format: functional
Mu-type opioid receptor [16] = target: T8, Mu-type opioid receptor; test: mu opioid receptor blockers – image-based, SAR follow-up (AID 2420); format: functional;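 also: compounds added before stimulation of receptor with agonist DAMGO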
Paired box protein Pax-8 = Paired box protein Pax-8 (Homo sapiens, UniProt Q06710); test: PAX8 transcriptional activity inhibition in RMG-I – RMG-I cells, luciferase, cherry-pick, dose response (AID 687027); format: functional, cell-based;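 also: luciferase reporter driven by Pax8 target thyroperoxidase promoter measured by SteadyGlo luminescence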
Hexokinase HKDC1 = target: T9, Hexokinase HKDC1 (Homo sapiens, UniProt Q2TB90); test: activation of HKDC1 glucose phosphorylation – biochemical, W721R variant, dose response (AID 504730); format: functional
T9 sequence (Q2TB90 whole entry): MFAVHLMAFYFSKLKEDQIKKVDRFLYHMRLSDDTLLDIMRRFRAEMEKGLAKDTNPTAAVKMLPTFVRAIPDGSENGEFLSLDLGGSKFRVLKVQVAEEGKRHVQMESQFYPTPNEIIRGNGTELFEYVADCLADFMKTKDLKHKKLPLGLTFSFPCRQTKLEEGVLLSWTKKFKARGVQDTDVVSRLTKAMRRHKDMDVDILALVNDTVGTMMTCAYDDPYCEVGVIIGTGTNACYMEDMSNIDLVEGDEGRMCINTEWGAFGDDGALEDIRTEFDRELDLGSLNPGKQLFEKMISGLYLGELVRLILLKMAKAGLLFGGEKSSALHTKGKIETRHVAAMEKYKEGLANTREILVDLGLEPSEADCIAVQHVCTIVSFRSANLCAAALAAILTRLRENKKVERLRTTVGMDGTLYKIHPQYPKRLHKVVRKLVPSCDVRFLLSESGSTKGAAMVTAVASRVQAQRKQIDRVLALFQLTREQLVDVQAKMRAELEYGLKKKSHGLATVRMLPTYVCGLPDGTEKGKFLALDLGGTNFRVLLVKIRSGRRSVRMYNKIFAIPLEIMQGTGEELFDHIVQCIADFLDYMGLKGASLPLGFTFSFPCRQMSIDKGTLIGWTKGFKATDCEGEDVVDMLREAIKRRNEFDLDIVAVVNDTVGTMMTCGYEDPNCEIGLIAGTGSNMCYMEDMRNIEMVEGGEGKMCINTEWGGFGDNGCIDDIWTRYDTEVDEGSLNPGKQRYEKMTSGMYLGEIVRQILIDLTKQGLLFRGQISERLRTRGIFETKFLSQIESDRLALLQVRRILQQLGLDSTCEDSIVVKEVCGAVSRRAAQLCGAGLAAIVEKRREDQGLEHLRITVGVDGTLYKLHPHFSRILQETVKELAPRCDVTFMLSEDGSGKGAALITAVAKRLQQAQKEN

INS1 = test: INS-1E survival protection against cytokine death – cell-based, luminescence, retest, dose response (AID 449756); format: functional; details: Rattus norvegicus;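 also: cell death triggered by IL-1 beta plus TNF-alpha plus IFN-gamma mixture; protective hits raise ATP signal compared with cytokine alone wells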
[17] = NIH3T3 cell viability loss – ATP luminescence, mouse fibroblasts, counter-screen, dose response (AID 2010); format: functional, cell-based;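 also: cells exposed to compound for about 90 hours before reading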
Hexokinase-1 = Hexokinase-1 (Homo sapiens, UniProt P19367); test: HK1 enzyme activation by HKDC1 hits – biochemical, selectivity assay for HKDC1 activator project, dose response (AID 504762); format: functional
[18] = Trypanosoma cruzi growth suppression in host cells – NIH3T3 host cells, beta-gal luminescence, confirmation (AID 2044); format: functional, cell-based;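 also: intracellular parasites grown in NIH/3T3 mouse fibroblasts as host cells; luminescent beta-galactosidase reporter signal from transgenic T. cruzi replicating inside host cells; inhibitors lower the luminescence signal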

T6 sequence (P41145 whole entry): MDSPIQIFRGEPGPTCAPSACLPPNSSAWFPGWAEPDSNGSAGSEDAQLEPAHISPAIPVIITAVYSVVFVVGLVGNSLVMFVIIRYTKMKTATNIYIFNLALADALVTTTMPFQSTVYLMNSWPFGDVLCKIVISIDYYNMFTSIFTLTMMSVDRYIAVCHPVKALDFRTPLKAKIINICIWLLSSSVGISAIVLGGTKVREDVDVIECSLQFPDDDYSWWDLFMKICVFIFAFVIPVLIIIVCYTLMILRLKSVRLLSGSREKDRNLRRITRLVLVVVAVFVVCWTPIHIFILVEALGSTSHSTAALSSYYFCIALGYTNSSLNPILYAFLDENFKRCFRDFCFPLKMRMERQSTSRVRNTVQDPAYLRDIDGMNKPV
T7 sequence (P41143 whole entry): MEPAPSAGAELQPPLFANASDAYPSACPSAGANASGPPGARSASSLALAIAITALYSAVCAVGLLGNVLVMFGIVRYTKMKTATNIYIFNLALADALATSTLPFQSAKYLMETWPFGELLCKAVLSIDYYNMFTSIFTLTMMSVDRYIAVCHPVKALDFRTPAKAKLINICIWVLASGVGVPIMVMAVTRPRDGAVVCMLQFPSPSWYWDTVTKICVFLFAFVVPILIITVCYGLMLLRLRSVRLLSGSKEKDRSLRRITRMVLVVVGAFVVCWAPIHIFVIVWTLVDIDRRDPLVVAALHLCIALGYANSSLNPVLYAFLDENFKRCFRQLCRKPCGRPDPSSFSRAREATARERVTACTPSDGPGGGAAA
T1 sequence (P09923 whole entry): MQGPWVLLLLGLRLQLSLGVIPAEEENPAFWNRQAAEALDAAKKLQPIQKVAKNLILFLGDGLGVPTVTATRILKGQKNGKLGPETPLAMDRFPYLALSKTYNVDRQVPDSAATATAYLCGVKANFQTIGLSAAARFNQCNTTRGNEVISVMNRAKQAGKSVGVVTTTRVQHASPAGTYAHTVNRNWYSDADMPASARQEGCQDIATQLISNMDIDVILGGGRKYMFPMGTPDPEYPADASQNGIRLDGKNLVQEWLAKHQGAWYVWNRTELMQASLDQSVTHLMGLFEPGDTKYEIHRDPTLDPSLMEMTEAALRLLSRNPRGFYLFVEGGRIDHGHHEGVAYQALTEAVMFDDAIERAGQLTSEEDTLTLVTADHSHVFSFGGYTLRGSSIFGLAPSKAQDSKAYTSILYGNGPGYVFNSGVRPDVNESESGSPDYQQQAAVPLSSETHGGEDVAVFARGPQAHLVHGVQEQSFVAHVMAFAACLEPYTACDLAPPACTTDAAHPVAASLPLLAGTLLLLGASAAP
T8 sequence (P35372 whole entry): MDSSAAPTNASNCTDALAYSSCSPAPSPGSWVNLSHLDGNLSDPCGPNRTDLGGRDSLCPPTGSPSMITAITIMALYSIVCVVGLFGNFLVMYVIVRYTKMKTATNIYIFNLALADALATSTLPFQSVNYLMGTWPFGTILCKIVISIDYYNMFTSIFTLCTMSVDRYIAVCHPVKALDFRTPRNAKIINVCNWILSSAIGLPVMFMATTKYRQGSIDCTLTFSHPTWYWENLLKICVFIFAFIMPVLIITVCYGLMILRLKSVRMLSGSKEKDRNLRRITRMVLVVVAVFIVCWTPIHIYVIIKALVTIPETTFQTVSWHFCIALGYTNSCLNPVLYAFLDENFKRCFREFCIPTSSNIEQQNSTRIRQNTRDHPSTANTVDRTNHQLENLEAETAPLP
Chain of Intestinal-type alkaline phosphatase (Mus musculus, UniProt P24822) (P24822 whole entry): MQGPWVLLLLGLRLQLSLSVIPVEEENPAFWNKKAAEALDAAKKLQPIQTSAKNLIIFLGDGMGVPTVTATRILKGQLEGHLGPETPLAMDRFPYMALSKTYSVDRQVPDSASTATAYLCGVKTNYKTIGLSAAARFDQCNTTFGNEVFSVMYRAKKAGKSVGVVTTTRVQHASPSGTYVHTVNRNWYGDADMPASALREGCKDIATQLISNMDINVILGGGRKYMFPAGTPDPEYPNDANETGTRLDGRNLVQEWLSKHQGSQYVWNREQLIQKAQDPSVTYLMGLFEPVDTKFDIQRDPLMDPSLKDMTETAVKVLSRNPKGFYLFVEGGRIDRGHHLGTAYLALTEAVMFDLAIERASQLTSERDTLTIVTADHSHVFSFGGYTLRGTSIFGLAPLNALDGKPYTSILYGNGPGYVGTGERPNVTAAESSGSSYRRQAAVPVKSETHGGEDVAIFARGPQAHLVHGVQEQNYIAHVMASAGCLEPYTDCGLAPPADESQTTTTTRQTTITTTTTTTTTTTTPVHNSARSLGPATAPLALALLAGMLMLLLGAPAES
Chain of Hexokinase-1 (P19367 whole entry): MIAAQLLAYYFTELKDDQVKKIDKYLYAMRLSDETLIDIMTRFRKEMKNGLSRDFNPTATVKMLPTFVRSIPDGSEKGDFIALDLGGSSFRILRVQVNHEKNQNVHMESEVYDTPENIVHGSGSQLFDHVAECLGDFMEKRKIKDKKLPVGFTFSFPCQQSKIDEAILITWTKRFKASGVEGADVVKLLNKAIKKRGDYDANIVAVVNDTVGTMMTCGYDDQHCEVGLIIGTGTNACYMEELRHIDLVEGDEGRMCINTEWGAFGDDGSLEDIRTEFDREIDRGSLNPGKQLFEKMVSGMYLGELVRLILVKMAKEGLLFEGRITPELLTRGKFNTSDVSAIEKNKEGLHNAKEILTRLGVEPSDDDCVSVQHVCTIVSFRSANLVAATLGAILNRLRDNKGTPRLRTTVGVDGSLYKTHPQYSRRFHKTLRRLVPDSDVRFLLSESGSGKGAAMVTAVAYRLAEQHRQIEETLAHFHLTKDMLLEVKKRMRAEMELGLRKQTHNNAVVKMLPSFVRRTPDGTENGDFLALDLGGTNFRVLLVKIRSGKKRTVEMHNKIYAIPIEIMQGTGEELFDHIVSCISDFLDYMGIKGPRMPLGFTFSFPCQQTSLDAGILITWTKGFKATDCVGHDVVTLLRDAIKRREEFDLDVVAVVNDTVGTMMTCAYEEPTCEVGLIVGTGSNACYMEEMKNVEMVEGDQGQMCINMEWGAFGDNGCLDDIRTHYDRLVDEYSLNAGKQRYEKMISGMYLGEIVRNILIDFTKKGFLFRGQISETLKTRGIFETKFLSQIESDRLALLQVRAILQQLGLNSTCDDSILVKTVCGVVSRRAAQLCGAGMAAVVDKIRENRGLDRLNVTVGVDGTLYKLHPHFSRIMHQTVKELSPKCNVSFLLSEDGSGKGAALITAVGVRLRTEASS
Chain of Paired box protein Pax-8 (Q06710 whole entry): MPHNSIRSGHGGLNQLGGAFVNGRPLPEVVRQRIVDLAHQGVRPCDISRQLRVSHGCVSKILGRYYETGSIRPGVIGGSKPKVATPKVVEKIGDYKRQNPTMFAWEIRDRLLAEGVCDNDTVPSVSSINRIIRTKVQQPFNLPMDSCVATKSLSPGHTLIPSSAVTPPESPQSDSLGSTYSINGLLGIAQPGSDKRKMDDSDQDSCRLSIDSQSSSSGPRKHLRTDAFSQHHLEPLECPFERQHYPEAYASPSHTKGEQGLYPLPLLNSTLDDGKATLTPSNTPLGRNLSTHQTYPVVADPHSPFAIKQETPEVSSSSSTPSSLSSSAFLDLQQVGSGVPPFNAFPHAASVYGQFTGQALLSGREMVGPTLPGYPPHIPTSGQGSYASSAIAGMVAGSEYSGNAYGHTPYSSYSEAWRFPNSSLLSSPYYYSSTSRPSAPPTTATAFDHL

| SMILES | IC50 [1] | IC50 [2] | AC50 [3] | IC50 [6] | IC50 [7] | IC50 [10] | EC50 [11] | EC50 [12] | IC50 [13] | EC50 (Mu-type opioid receptor [14]) | IC50 [15] | IC50 (Mu-type opioid receptor [16]) | other results |
| --- | --- | --- | --- | --- | --- | --- | --- | --- | --- | --- | --- | --- | --- |
| CC(C)=CCc1c(O)ccc2c1OC(c1ccc(O)c(O)c1)CC2=O (centres undefined) | 11.5 µM (active) | 6.64 µM (active) | 3.68 µM (active) | 1.97 µM (active) | 88.8 µM (active) |  |  |  |  |  |  |  | AC50 [4]: 11.7 µM (active); EC50 [5]: > 99 µM (inactive); EC50 [8]: > 99 µM (inactive) |
| COc1ccc(C=C2C(=O)c3ccccc3C2=O)cc1O | 15 µM (active) | 12.7 µM (inactive) | 1.7 µM (active) | 15.6 µM (active) | 15.6 µM (active) |  |  |  |  |  |  |  | IC50 [9]: 46.8 µM (active) |
| CC(=O)Nc1ccc(S(=O)(=O)NCc2ccc(C(=O)NCCN(C)Cc3ccccc3)cc2)cc1 |  |  |  |  |  | > 10 µM (inactive) | > 32 µM (inactive) | > 32 µM (inactive) | > 32 µM (inactive) | > 32 µM (inactive) | > 32 µM (inactive) | > 32 µM (inactive) |  |
| O=C(NC(NC(=S)Nc1ccc(Cl)c(Cl)c1)C(Cl)(Cl)Cl)OCc1ccccc1 (centres undefined) |  |  |  |  |  | > 10 µM (inactive) | > 32 µM (inactive) | > 32 µM (inactive) | 11.9 µM (inactive) | > 32 µM (inactive) | > 32 µM (inactive) | > 32 µM (inactive) |  |
| COc1ccc(C2=NN=C(Nc3cc(S(=O)(=O)N(C)C)ccc3C)SC2)c(OC)c1 |  |  |  |  |  |  |  |  |  |  |  |  | AC50 (Paired box protein Pax-8): 6.77 µM (active); EC50 (Hexokinase HKDC1): 18.5 µM (active); AC50 (INS1): 5.48 µM (active); EC50 [17]: 5.85 µM (active); EC50 (Hexokinase-1): 17.4 µM (active); EC50 [18]: 3.57 µM (active) |

Source: ChEMBL document CHEMBL1201862, “PubChem BioAssay data set” (2004)
